PMC12217679 (Scientific Reports, 2025)
pKd: −log10 of the molar value.

Tests used:
DPP4 = details: read-out: dissociation constant (Kd) with DPP4; cited from earlier work
cholesterol metabolism = details: cited from earlier work
[1] = biological target: T1, human intestinal alkaline phosphatase (hIAP) (Homo sapiens, UniProt P09923); assay: SPR competition of IIAEK binding to hIAP by PLP; details: IIAEK 297 μM, PLP 0, 1000 and 2000 μM, HBS-N pH 7.4
T1 sequence (P09923 20-503 limits assumed): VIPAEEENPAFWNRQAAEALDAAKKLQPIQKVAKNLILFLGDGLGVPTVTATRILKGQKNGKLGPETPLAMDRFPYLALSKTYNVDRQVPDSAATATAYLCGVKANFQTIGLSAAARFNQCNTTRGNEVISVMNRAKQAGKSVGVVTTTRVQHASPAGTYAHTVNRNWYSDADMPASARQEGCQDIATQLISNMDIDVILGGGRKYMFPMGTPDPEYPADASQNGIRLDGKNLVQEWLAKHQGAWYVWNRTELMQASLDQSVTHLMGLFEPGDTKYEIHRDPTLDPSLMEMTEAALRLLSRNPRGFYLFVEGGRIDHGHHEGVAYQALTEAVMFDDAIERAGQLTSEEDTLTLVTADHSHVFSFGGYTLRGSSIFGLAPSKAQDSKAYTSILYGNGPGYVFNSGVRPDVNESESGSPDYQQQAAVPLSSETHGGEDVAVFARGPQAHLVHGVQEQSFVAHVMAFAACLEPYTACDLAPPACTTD

mouse liver = details: cited from earlier work
hepatic NPC1L1 = details: cited from earlier work

GLP-1: DPP4 substrate
pKd (DPP4): 3.82

VHVV
improvement of cholesterol metabolism in animal studies (cholesterol metabolism): effectively improve cholesterol metabolism

GEQQQPGM
improvement of cholesterol metabolism in animal studies (cholesterol metabolism): effectively improve cholesterol metabolism

VFVRN
improvement of cholesterol metabolism in animal studies (cholesterol metabolism): effectively improve cholesterol metabolism

HIRL
improvement of cholesterol metabolism in animal studies (cholesterol metabolism): effectively improve cholesterol metabolism

Cc1ncc(COP(=O)(O)O)c(C=O)c1O [PLP, Pyridoxal 5′-phosphate]
competition with IIAEK for hIAP [1]: competes for the interaction between IIAEK and hIAP in a concentration-dependent manner

VAWWMY
improvement of cholesterol metabolism in animal studies (cholesterol metabolism): effectively improve cholesterol metabolism

O=C1[C@H](CC[C@H](O)c2ccc(F)cc2)[C@@H](c2ccc(O)cc2)N1c1ccc(F)cc1 [ezetimibe]
hepatic mRNA levels of Hmgcr and Srebf2 (mouse liver): increasing hepatic mRNA levels of Hmgcr and Srebf2 | liver cholesterol levels (mouse liver): decreases liver cholesterol levels | hepatic NPC1L1-induced hepatic lipids accumulation (hepatic NPC1L1): eliminated

VSEE
improvement of cholesterol metabolism in animal studies (cholesterol metabolism): effectively improve cholesterol metabolism
